Key:
[1] = biological target: T1, CXCR6 (Homo sapiens, UniProt O00574); assay: β-arrestin recruitment inhibition in CXCR6-expressing CHO-K1 cells (PathHunter, DiscoveRx); assay type: cell-based
Description: (§1) Compounds of Formula (I), (Ia), (Ib), (Ic), (Id), and (II) are tested for their ability to inhibit β-arrestin recruitment in CXCR6-expressing CHO-K1 cells using the β-galactosidase PathHunter Enzyme Complementation Platform from DiscoveRx. A detailed protocol for this assay is available on PubChem (AIDs 624129). Accordingly, 800 CHO-K1 cells expressing CXCR6 (DiscoveRx, Cat #93-0205C2) are seeded into the wells of a white opaque 1536-well plate, centrifuged, and incubated overnight at 37° C., 5% CO2. The next day, compounds of Formula (I), (Ia), (Ib), (Ic), (Id), and (II) and controls (CXCL16 (10 nM) or DMSO) are dispensed into wells and incubated for 1.5 h. The assay is terminated upon addition of lysis buffer, detection substrate, and enzyme. Luminescence is read on the Envision plate reader 1 h post-termination. All compounds are tested in a 10 pt dose-response curve in duplicate. Compounds will also be tested in a CXCR6-dependent cAMP assay using the Lance Ultra assay from PerkinElmer. Accordingly, 2 uL CXCR6-expressing cells are suspended in assay media (OptiMEM; 2% FBS; 1×P/S) and plated at 500 cells/well in 1536-well, white, TC plates and grown overnight at 37° C.; 5% CO2. 40 nL test compounds of Formula (I), (Ia), (Ib), (Ic), (Id), and (II) are added to cells using ECHO dispenser. 2 uL of 2.5 mM forskolin in stimulation buffer (HBSS; 5 mM HEPES; 0.1% BSA; 0.1 mM RO-20-1724) with or without 20 nM CXCL16 is transferred to wells using BioRAPTR. Wells treated with forskolin and CXCL16 serve as negative controls and wells treated with forskolin only serve as positive controls. Cells are incubated at room temperature for 30 min followed by addition of 2 uL each EU-cAMP tracer and ULight anti-cAMP Ab in detection buffer according to manufacturer's instruction. After 30 min at room temperature, TR-FRET is read using EnVision plate reader.

[2] = tested on: SK-Hep-1 cancer xenograft; assay: SK-Hep-1 cancer xenograft tumor growth; assay type: in vivo; details: compared to control; FIG. 1 legend
[3] = biological target: T1, CXCR6; assay: CXCR6-dependent cAMP assay (Lance Ultra, PerkinElmer); assay type: cell-based; details: CXCR6-expressing cells, forskolin + CXCL16; Table B-1
Description: as §1

[4] = CXCR6-expressing CHO-K1 cells, Table B-1, read-out: IC50 (β-arrestin)

T1 sequence (O00574 whole entry): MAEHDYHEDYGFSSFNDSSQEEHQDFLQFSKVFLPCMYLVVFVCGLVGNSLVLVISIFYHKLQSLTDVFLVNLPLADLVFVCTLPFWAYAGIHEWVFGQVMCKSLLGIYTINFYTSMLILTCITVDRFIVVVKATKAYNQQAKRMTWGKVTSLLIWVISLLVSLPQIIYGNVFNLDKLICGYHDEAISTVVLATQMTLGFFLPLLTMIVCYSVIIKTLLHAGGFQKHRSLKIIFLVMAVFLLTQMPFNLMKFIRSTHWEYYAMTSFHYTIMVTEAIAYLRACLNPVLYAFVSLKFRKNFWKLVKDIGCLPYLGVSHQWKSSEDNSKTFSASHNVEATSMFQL

| Compound | IC50 [1] | IC50 [1, 4] | IC50 [3] | further results |
| --- | --- | --- | --- | --- |
| COc1cc(C(=O)N2C[C@H]3CCC[C@@H](C2)N3Cc2nc3c(C(F)(F)F)cccc3s2)cc(OC)c1OC [((1R,5S)-9-((4-(trifluoromethyl)benzo[d]thiazol-2-yl)methyl)-3,9-diazabicyclo[3.3.1]nonan-3-yl)(3,4,5-trimethoxyphenyl)methanone] | 0.1 to 2 µM |  |  |  |
| COc1cc(C(=O)N[C@@H]2C[C@H]3CCC[C@@H](C2)N3Cc2nc3c(C(F)(F)F)cccc3s2)ccc1OC(C)C [4-isopropoxy-3-methoxy-N-((1R,3s,5S)-9-((4-(trifluoromethyl)benzo[d]thiazol-2-yl)methyl)-9-azabicyclo[3.3.1]nonan-3-yl)benzamide] | 0.1 to 2 µM |  |  |  |
| COc1cc(C(=O)N[C@@H]2C[C@H]3CCC[C@@H](C2)N3Cc2nc3c(C(F)(F)F)cccc3s2)cc(OC)c1OC [Compound 1, 3,4,5-trimethoxy-N-((1R,3s,5S)-9-((4-(trifluoromethyl)benzo[d]thiazol-2-yl)methyl)-9-azabicyclo[3.3.1]nonan-3-yl)benzamide] | < 0.1 µM |  |  |  |
| O=P1(N(CCCl)CCCl)NCCCO1 (stereo not drawn) [cyclophosphamide] |  |  |  | tumor growth, SK-Hep-1 cancer xenograft [2]: tumor growth reduction |
| CCC(C)Oc1ccc(C(=O)N[C@@H]2C[C@H]3CCC[C@@H](C2)N3Cc2nc3c(C(F)(F)F)cccc3s2)cc1OC (stereo partly drawn) [4-(sec-butoxy)-3-methoxy-N-((1R,3s,5S)-9-((4-(trifluoromethyl)benzo[d]thiazol-2-yl)methyl)-9-azabicyclo[3.3.1]nonan-3-yl)benzamide] |  | < 0.1 µM |  |  |
| COc1cc(C(=O)N[C@@H]2C[C@H]3CCC[C@@H](C2)N3Cc2nc3c(Cl)c(Cl)ccc3s2)cc(OC)c1OC [N-((1R,3s,5S)-9-((4,5-dichlorobenzo[d]thiazol-2-yl)methyl)-9-azabicyclo[3.3.1]nonan-3-yl)-3,4,5-trimethoxybenzamide] | < 0.1 µM |  |  |  |
| COc1cc(C(=O)N[C@@H]2C[C@H]3CCC[C@@H](C2)N3Cc2nc3c(Cl)cccc3s2)cc(OC)c1OC [N-((1R,3s,5S)-9-((4-chlorobenzo[d]thiazol-2-yl)methyl)-9-azabicyclo[3.3.1]nonan-3-yl)-3,4,5-trimethoxybenzamide] |  | 0.1 to 2 µM | 0.1 to 2 µM |  |
| COc1cc(C(=O)N[C@@H]2C[C@H]3CCC[C@@H](C2)N3Cc2cc3ccccc3s2)cc(OC)c1OC [N-((1R,3s,5S)-9-(benzo[b]thiophen-2-ylmethyl)-9-azabicyclo[3.3.1]nonan-3-yl)-3,4,5-trimethoxybenzamide] |  | 0.1 to 2 µM | 5 to 20 µM |  |
| COc1cc(C(=O)N[C@@H]2C[C@H]3CCC[C@@H](C2)N3CC(=O)Nc2ccccc2Cl)cc(OC)c1OC [N-((1R,3s,5S)-9-(2-((2-chlorophenyl)amino)-2-oxoethyl)-9-azabicyclo[3.3.1]nonan-3-yl)-3,4,5-trimethoxybenzamide] |  | 0.1 to 2 µM | 2 to 5 µM |  |

Reference: patent publication US20220402908A1, “CXCR6 INHIBITORS AND METHODS OF USE” (Sanford Burnham Prebys Medical Discovery Institute, priority 2019, published 2022)
